Test results reported in patent US11576915B2, “Method for treating pulmonary arterial hypertension and associated pulmonary arterial hypertension and daily dosing” (Altavant Sciences GmbH, priority 2019, dated 2023).

Experiments:
[1] = Example 3 healthy subjects QD vs BID: KAR5417 plasma levels; type: in vivo, human
Protocol: (§1) 24 healthy subjects received 800 mg total daily oral doses of RVT-1201 or placebo (PBO), either as single (800 mg QD) or divided (400 mg BID) doses for 14 days across two cohorts (9 active: 3 PBO per cohort). KAR5417 plasma levels and change from Baseline (BSL) PD biomarker data (plasma and urine 5-HIAA) were compared between QD and BID cohorts at day 14. Safety and tolerability were assessed via adverse event (AE) monitoring and laboratory, vital signs and ECG assessments.

[2] = tested on: serotonin biosynthesis; assay: Example 2 healthy human subjects: plasma 5-HIAA; type: in vivo; settings: 400 mg BID, Day 1 to Day 14
Protocol: (§2) Mean change in plasma 5-HIAA may be about −53% from Day 1 to Day 14, whereas placebo may be about +26%. Interpolation of KAR5417 AUC between 400 mg and 800 mg BID regimens may show 500-600 mg BID in humans will achieve the target exposure associated with efficacy in rat models.

[3] = tested on: PAH; assay: SUGEN-hypoxia treatment model for established PAH; type: in vivo; settings: rat, oral 100 mg/kg/day
[4] = tested on: serotonin biomarkers; assay: divided dose pharmacodynamic studies in rats (QD vs BID vs TID); type: in vivo, rat
Protocol: (§3) TPH1 is the rate-limiting enzyme for peripheral biosynthesis of serotonin (5HT), which has been implicated as a causative factor in PAH. RVT-1201 decreased pulmonary vessel wall thickness in 2 PAH rodent models indicating potential to halt/reverse pulmonary remodeling in humans. The median effective dose (100 mg/kg QD) in PAH rat models yielded a ˜35% reduction in 5-HT biosynthesis (based on urinary 5-HIAA, a metabolite of 5HT). […] The example compares reductions in 5-HIAA levels following QD and BID dosing in healthy subjects.

[5] = Example 3 healthy subjects QD vs BID: safety and tolerability; type: in vivo, human
Protocol: as §1

[6] = tested on: serotonin biosynthesis; assay: rat serotonin biomarkers (serum serotonin, urinary 5-HIAA); type: in vivo; settings: 30 to 300 mg/kg/day, dose-dependent
Protocol: RVT-1201 (30 to 300 mg/kg/day) may yield a dose-dependent reduction in rat serum serotonin (−27% to −96%) and 24 h urinary output of 5-HIAA (−45% to −56%). HIAA is a metabolite that reflects total serotonin biosynthesis.

[7] = Example 2 healthy human subjects: safety and tolerability; type: in vivo; settings: doses required to achieve clinically-relevant AUC
Protocol: (§4) Healthy human subjects (n=˜120) may receive RVT-1201.
as §2

[8] = Example 2 healthy human subjects: pharmacokinetics; type: in vivo
Protocol: as §4, §2

[9] = tested on: PAH; assay: monocrotaline prevention model of PAH; type: in vivo; settings: rat, oral 100 mg/kg/day
[10] = tested on: serotonin biosynthesis; assay: Example 3 healthy subjects QD vs BID: plasma and urine 5-HIAA; type: in vivo, human; settings: day 14, change from baseline
Protocol: as §1

[11] = tested on: PAH; assay: PAH rodent models (Example 3 background); type: in vivo, rat
Protocol: as §3

[12] = polymorph stability and shelf life; type: physicochemical; settings: particularly at temperatures of less than 95° C.
From the text: The above-referenced compound can be used to prevent or treat PAH/APAH in either an amorphous or crystalline form. Two different polymorph crystalline forms are identified by x-ray powder diffraction patterns set forth in FIG. 1 (Form 3) and FIG. 2 (Form 1) as well as Tables 1 and 2 (Form 3) and Tables 3 and 4 (Form 1).

Nc1nc(O[C@H](c2ccc(Cl)cc2-c2ccccc2)C(F)(F)F)cc(N2CCC3(CC2)CN[C@H](C(=O)O)C3)n1 [KAR5417, (S)-8-(2-amino-6-((R)-1-(5-chloro-[1,1′-biphenyl]-2-yl)-2,2,2-trifluoroeth-oxy)pyrimidin-4-yl)-2,8-diazaspiro[4.5]decane-3-carboxylic acid]
KAR5417 mean pAUC0-24 ([1]; RVT-1201 400 mg BID oral, day 14): 10400 ng*h/mL
AUC(0-t) ([1]; human, plasma, RVT-1201 800 mg QD oral, day 14, read-out: KAR5417 mean AUC0-24): 9180 ng·h/mL

CCOC(=O)[C@@H]1CC2(CCN(c3cc(O[C@H](c4ccc(Cl)cc4-c4ccccc4)C(F)(F)F)nc(N)n3)CC2)CN1 [RVT-1201, (S)-ethyl 8-(2-amino-6-((R)-1-(5-chloro-[1,1′-biphenyl]-2-yl)-2,2,2-trifluoroethoxy)pyrimidin-4-yl)-2,8-diazaspiro[4.5]decane-3-carboxylate]
mean change in plasma 5-HIAA [2]: about −53%
block or ameliorate PAH [3]: may block or ameliorate PAH
QD dosing versus more frequent dosing, lowering of 5-HT ([4]; healthy rats, QD vs BID vs TID): as effective as more frequent dosing
once daily administration versus BID or TID regimens ([4]; rats, 75 mg/kg/day): comparable to BID or TID regimens
serotonin reduction ([4]; rats, 75 mg/kg/day, divided dose studies): ~65%
overall incidence of GI-related AEs ([5]; QD group (800 mg QD), 14 days): 78%
tolerability ([5]; both dose regimens (800 mg QD, 400 mg BID), 14 days): generally well-tolerated
overall incidence of GI-related AEs ([5]; divided dose group (400 mg BID), 14 days): 33%
treatment-related withdrawals ([5]; either cohort): no treatment-related withdrawals
reduction in 24 h urinary output of 5-HIAA [6]: −45% to −56%
reduction in rat serum serotonin [6]: −27% to −96%
tolerability [7]: well tolerated
human dose achieving target exposure associated with efficacy in rat models ([8]; BID, interpolation of KAR5417 AUC between 400 mg and 800 mg BID regimens): 500 to 600 mg
AUC following single doses versus dose ([8]; healthy human subjects, standard meals, single doses 200 to −1200 mg): proportional to dose
block or ameliorate PAH [9]: may block or ameliorate PAH
mean (±SD) reduction in plasma 5-HIAA ([10]; 400 mg BID): 49.9 (9.52) %
mean (±SD) reduction in urinary 5-HIAA ([10]; 400 mg BID): 55.5 (10.3) %
mean (±SD) reduction in plasma 5-HIAA ([10]; 800 mg QD): 40.0 (6.32) %
mean (±SD) reduction in urinary 5-HIAA ([10]; 800 mg QD): 45.8 (6.59) %
pulmonary vessel wall thickness ([11]; 2 PAH rodent models): decreased
median effective dose ([11]; PAH rat models, QD): 100 mg/kg
reduction in 5-HT biosynthesis (based on urinary 5-HIAA) ([11]; PAH rat models, at median effective dose 100 mg/kg QD): ~35%

CCOC(=O)[C@@H]1CC2(CCN(c3cc(O[C@H](c4ccc(Cl)cc4-c4ccccc4)C(F)(F)F)nc(N)n3)CC2)CN1 [crystalline Form 3, (S)-ethyl 8-(2-amino-6-((R)-1-(5-chloro-[1,1′-biphenyl]-2-yl)-2,2,2-trifluoroethoxy)pyrimidin-4-yl)-2,8-diazaspiro[4.5]decane-3-carboxylate]
stability and shelf life compared to crystalline Form 1 [12]: substantially greater stability and shelf life
